For data set [1], the system named is NCI-60 panel of cancer cell lines. Description: NCI-60 one dose screen, whole panel. The format is cell-based. Conditions: 10 μM, 48 hours. The method, then: One dose and five dose cytotoxicity screening was performed by the NCI-60 screening program of the National Institutes of Health (NIH), which is known in the art and available from the NIH. The NCI-60 panel is a collection of cancer cell lines, from various diverse tumors, which was developed in the 1980s by the National Cancer Institute to aid screening efforts for cytotoxic or cytostatic compounds.
In these screens, 60 cell lines, were utilized to determine the cytotoxic effect of small molecules, natural products, and other drug candidates. […]
The five dose screen was performed by creating four 10-fold dilutions of the highest concentration of the diluted 7-acetoxyroyleanone made in the same manner as the one dose screen. […] The bound stain was then dissolved in 10 mM trizma base and the absorbance was read using an automated plate reader at 515 nm. […]

The test system of data set [2] is RXF 393 (renal cancer) cells. Kind of data set: NCI-60 five dose screen, RXF 393. The conditions noted are these: read-out: LC50; RXF 393, Renal.

The text below walks through data of patent US20180353457A1, “ABIETANE DITERPENOID 7-ACETOXYROYLEANONES FOR USE IN CANCER TREATMENT” (University of South Carolina, priority 2017, published 2018).

With `CC(=O)O[C@@H]1C[C@H]2C(C)(C)CCC[C@]2(C)C2=C1C(=O)C(C(C)C)=C(O)C2=O` [7-acetoxyroyleanone], the “growth percent, average for all cell types screened” value in data set [1] was −18.5%. Also, the “growth inhibition of each cell line compared to the control” value in data set [1] (minimum over all cell lines) is given as “at least 72.88%”. In data set [2], the CC50 was 5.87 µM.
